Experimental data as given in patent publication US5840711A, “Compositions containing lithium inorganic salts and anti-viral drugs and method of treating viral infections such as acquired immunodeficiency syndrome” (priority 1997, dated 1998).
“Also recorded” adds a separate entry of the source. Read-outs that look alike come from different tables or passages of the source.

How the values were obtained:
[1] = tested on: H9 cells that are chronically infected with HIV; assay: LiGLA 4 days incubation in vitro with H9 cells chronically infected with HIV; type: cell-based
non-infected H9 cells = settings: 4 days incubation in vitro
Source text: Lithium gamma linolenate (LiGLA) for this study was obtained from Enfamol, Kentville, Nova Scotia, Canada.

[2] = tested on: CFU-GM (Myeloid) of normal bone marrow cells; assay: AZT bone marrow toxicity in vitro, CFU-GM colony formation; type: cell-based
Source text: (§1) This is a standard practice.

[3] = tested on: CFU-Meg (Megakaryocyte) of normal bone marrow cells; assay: AZT bone marrow toxicity in vitro, CFU-Meg colony formation; type: cell-based
Source text: as §1

[4] = tested on: BFU-E (Erythroid) of normal bone marrow cells; assay: AZT bone marrow toxicity in vitro, BFU-E colony formation; type: cell-based
Source text: as §1

LP-BM5 MuLV [5] = tested on: LP-BM5 MuLV
Source text: Female C57BL6 mice (8-10 weeks of age) were purchased from Harlan, Indianapolis, Ind., USA. All animals were quarantined for a minimum of 1-week before experimental use. Animals were housed in plastic cages and fed Purina lab chow and water ad libitum.
LP-BM5 MuLV isolate used in these studies was originally derived from a bone marrow stromal cell line (SC-1) harvested from animals infected with mink cell MuLV (Morse et al., 1992) and is routinely maintained in the laboratory. LP-BM5 MuLV is a retrovirus mixture containing replication-competent helper B-trophic ecotropic mink cell focus forming (MCF) virus and an etiologic 4.9-kb replication defective genome termed EM5-def, susceptibility to which depends on the presence of the FV-1b genotype permissive for B-trophic virus replication (Morse et al., 1992). Therefore, the viral pool permissive for B-trophic virus replication (Morse et al., 1992) consisted of a mixture of B-tropic ecotropic and B-tropic mink cell focus-inducing murine immunodeficiency virus (MuLV). The titers of ecotropic and MCF MuLV were determined by XC plaque assay in SC-1 cells or by SC-1 UV-mink assay. […] To minimize exogenous infection, mice were maintained in microisolator cages and handled in accordance with the NIH Guide for the Care and Use of Laboratory Animals (NIH No. 85-23, 1985). Cages, bedding and food were autoclaved prior to use and all cages and animal handling or monitoring were performed in laminar air flow hoods. Ventilation and air flow in the animal facility was set to 12 changes/h. Room temperatures were regulated at 72°±2° F. and the rooms were on automatic 12-h light/dark cycles. One hundred and twenty mice were infected by i.p. injection of 0.25 ml of LP-BM5 MuLV virus-stock (10 μg of total protein) harvested from the SC-1 cell line following 3-day in vitro culture. The development of MAIDS induced by virus was monitored by physical findings (Morse et al., 1992). […] Increased systemic levels of IgM were used to monitor the development of LP-BM5 MuLV-induced disease.
In order to evaluate the ability of lithium to influence hematopoiesis in immunodeficient virus-infected animals, the following studies were performed. One hundred and twenty mice infected with LP-BM5 were divided into two groups, i.e., 60 virus-infected mice served as virus controls and the other group was administered lithium carbonate (Li2 CO3, ultra-pure; Alpha Therapeutics, Danville, Mass. USA) placed in the drinking water at a concentration of 1 mM as previously described from this laboratory (Gallicchio et al., 1993). Lithium treatment was initiated 7 days prior to virus infection. […] Lithium was initiated 7 days before virus infection and was continued for the duration of the study. Plasma lithium levels from animals bled by cardiac puncture on the days of examination were monitored by use of flame photometry (Model no. 943, IL Instruments, Lexington, Mass. USA). Virus-infected controls and virus-infected mice treated with lithium were serially sacrificed 1, 5, 9, 13, 17 and 21 weeks following virus inoculation for determination of lithium treatment on hematopoiesis following administration in LP-BMS5 MuLV infected animals.

herpes simplex virus = settings: in vitro, cited from earlier work
[6] = tested on: HIV-positive patient with severe Factor VIII deficiency; settings: cited from earlier work
LP-BM5 MuLV [7] = settings: cited from earlier work
HIV-infected patients = settings: cited from earlier work
normal bone marrow cells [8] = settings: in vitro with normal bone marrow cells (previous work; b10 also in vivo mice); cited from earlier work
normal bone marrow cells [9] = assay: AZT toxicity on normal bone marrow cells in vitro, overall; settings: normal bone marrow cells with AZT
Experimental: These studies were performed in vitro with normal bone marrow cells incubated in the presence of AZT and Li-GLA.

AIDS patients = settings: clinical use; listed as zidovudine (AZT); cited from earlier work
[10] = week 3, Lithium Control (1 mM), listed as lithium

Experimental for Normal Mice: C57BL6 were administered dose-escalation AZT (1.0 mg/ml and 2.5 mg/ml) for a period of 4-weeks. […] Animals were analyzed on a weekly basis for their peripheral blood indices.
C57BL6 female mice were purchased from Harlan, Indianapolis, Ind., USA used at 6-12 weeks of age, and housed 5 to a cage. […] Mice received Purina Autoclavable Chow and water ad libitum until initiation of the study. Thereafter, water containing lithium was supplied to the animals and daily water consumption was monitored.
In order to evaluate the ability of lithium to influence the hematopoietic toxicity associated with AZT in mice that had already been exposed to AZT, the following protocol was established. […] AZT and lithium were added to the animal drinking water Groups II, III, V and VI began their AZT all at the same time. Groups V and VI, at the beginning of week 5, received lithium that was added to their water supply. All treated groups then continued to receive AZT for an additional 4 weeks, equaling a total treatment-study period lasting 8-weeks in duration.
Animals were serially sacrificed, at least three to a group, on a weekly basis, for eight consecutive weeks. Animals were bled from the tail vein (600 μl) for assessment of peripheral blood indices; i.e., packed red cell volume, white blood cell, and platelet counts. In addition, at least one femur per animal was obtained and the bone marrow cellularity was calculated using standard laboratory procedures.
Mean±SE for values comparing control with experimental, utilizing duplicate studies were determined and analyzed using the two-sample ranks test of Wilcoxam-White (P<0.05) to determine significance.

Compound: CCCCC/C=C\C/C=C\C/C=C\CCCCC(=O)[O-].[Li+] [Li-GLA, lithium gamma-linolenate]
- H9 cells killed [1]: 90%
- H9 cells killed (non-infected H9 cells): 20%
- CFU-GM (Myeloid) colonies ([2]; Li-GLA 10 μg/ml): 66.5
- CFU-GM (Myeloid) colonies ([2]; Li-GLA 15 μg/ml): 55.5
- CFU-GM (Myeloid) colonies ([2]; Li-GLA 20 μg/ml): 45.0
- CFU-Meg (Megakaryocyte) colonies ([3]; Li-GLA 10 μg/ml): 32.0 ± 3
- CFU-Meg (Megakaryocyte) colonies ([3]; Li-GLA 15 μg/ml): 28.0 ± 4
- CFU-Meg (Megakaryocyte) colonies ([3]; Li-GLA 20 μg/ml): 24.0 ± 3
- BFU-E (Erythroid) colonies ([4]; Li-GLA 10 μg/ml): 50 ± 4
- BFU-E (Erythroid) colonies ([4]; Li-GLA 15 μg/ml): 44 ± 4
- BFU-E (Erythroid) colonies ([4]; Li-GLA 20 μg/ml): 31 ± 3

Compound: O=C([O-])[O-].[Li+].[Li+] [Lithium, lithium carbonate]
- Immune function status (LP-BM5 MuLV [5]; murine model (MAIDS)): significantly improves immune function status
- Hematopoiesis in MAIDS mice (LP-BM5 MuLV [5]; versus animals not receiving lithium): significant hematopoiesis
- Bone marrow BFU-E (LP-BM5 MuLV [5]; versus viral controls): increased BFU-E that peaked on week 9
- Bone marrow CFU-GM (LP-BM5 MuLV [5]; versus viral controls): increased CFU-GM compared to viral controls that peaked on week 9
- Bone marrow CFU-Meg (LP-BM5 MuLV [5]; versus viral controls): increased, although not until week 17 of examination
- Splenic BFU-E (LP-BM5 MuLV [5]; versus viral controls): increased at all time points examined
- Splenic CFU-GM (LP-BM5 MuLV [5]; versus viral controls): significantly increased at all time points compared to viral controls
- Splenic CFU-Meg (LP-BM5 MuLV [5]; versus viral controls): increased significantly
- Absolute neutrophils (LP-BM5 MuLV [5]; versus virus control group, FIG. 2a): increased
- Absolute lymphocytes (LP-BM5 MuLV [5]; versus virus control group, FIG. 2b): increased
- Effect on packed red cell volume (hematocrit) (LP-BM5 MuLV [5]; versus virus-control group, FIG. 1a): decreased the reduction
- Effect on white blood cell count (LP-BM5 MuLV [5]; versus virus-control group, FIG. 1b): decreased the reduction
- Effect on platelets (LP-BM5 MuLV [5]; versus virus-control group, FIG. 1c): decreased the reduction
- Signs of lithium toxicity, i.e., tremor (LP-BM5 MuLV [5]; virus-infected mice receiving lithium): no demonstrable signs of lithium toxicity
- Reduction in eosinophils (Normal Mice; AZT with lithium treatment): prevented this reduction in eosinophils observed with AZT
- Thrombocytopenia (Normal Mice; following lithium, each week examined, both AZT groups): no thrombocytopenia
- Eosinophils (Normal Mice; week 1, Lithium Control (1 mM)): 100 Percent Control
- Hematocrit (Normal Mice; week 1, Lithium Control (1 mM)): 98 Percent Control
- Neutrophils (Normal Mice; week 1, Lithium Control (1 mM)): 100 Percent Control
- Platelets (Normal Mice; week 1, Lithium Control (1 mM)): 100 Percent Control
- Eosinophils (Normal Mice; week 2, Lithium Control (1 mM)): 100 Percent Control
- Hematocrit (Normal Mice; week 2, Lithium Control (1 mM)): 82 Percent Control
- Neutrophils (Normal Mice; week 2, Lithium Control (1 mM)): 54 Percent Control
- Platelets (Normal Mice; week 2, Lithium Control (1 mM)): 93 Percent Control
- Eosinophils (Normal Mice; week 3, Lithium Control (1 mM)): 100 Percent Control
- Hematocrit (Normal Mice; week 3, Lithium Control (1 mM)): 101 Percent Control
- Neutrophils (Normal Mice; week 3, Lithium Control (1 mM)): 65 Percent Control
- Platelets (Normal Mice; week 3, Lithium Control (1 mM)): 93 Percent Control
- Neutrophils (Normal Mice; [10]): 120 Percent Control
- Platelets (Normal Mice; [10]): 116 Percent Control
- Eosinophils (Normal Mice; week 4, Lithium Control (1 mM)): 100 Percent Control
- Hematocrit (Normal Mice; week 4, Lithium Control (1 mM)): 100 Percent Control
- Neutrophils (Normal Mice; week 4, Lithium Control (1 mM)): 61 Percent Control
- Platelets (Normal Mice; week 4, Lithium Control (1 mM)): 74 Percent Control
- Eosinophils (Normal Mice; week 5, Lithium Control (1 mM)): 100 Percent Control
- Hematocrit (Normal Mice; week 5, Lithium Control (1 mM)): 98 Percent Control
- Neutrophils (Normal Mice; week 5, Lithium Control (1 mM)): 54 Percent Control
- Platelets (Normal Mice; week 5, Lithium Control (1 mM)): 69 Percent Control
- Eosinophils (Normal Mice; week 6, Lithium Control (1 mM)): 146 Percent Control
- Hematocrit (Normal Mice; week 6, Lithium Control (1 mM)): 94 Percent Control
- Neutrophils (Normal Mice; week 6, Lithium Control (1 mM)): 98 Percent Control
- Platelets (Normal Mice; week 6, Lithium Control (1 mM)): 69 Percent Control
- Eosinophils (Normal Mice; week 7, Lithium Control (1 mM)): 100 Percent Control
- Hematocrit (Normal Mice; week 7, Lithium Control (1 mM)): 98 Percent Control
- Neutrophils (Normal Mice; week 7, Lithium Control (1 mM)): 120 Percent Control
- Platelets (Normal Mice; week 7, Lithium Control (1 mM)): 116 Percent Control
- Eosinophils (Normal Mice; week 8 (+ lithium from week 5 in combination group), AZT 1.0 mg/ml): 110 Percent Control
- Eosinophils (Normal Mice; week 8 (+ lithium from week 5 in combination group), AZT 2.5 mg/ml (AZT column headed 2 mg/ml)): 164 Percent Control
- Hematocrit toxicity (Normal Mice; week 8, lithium versus AZT controls): the same level of toxicity as the AZT controls
- Eosinophils (Normal Mice; week 8, Lithium Control (1 mM)): 107 Percent Control
- Hematocrit (Normal Mice; week 8, Lithium Control (1 mM)): 88 Percent Control
- Neutrophils (Normal Mice; week 8, Lithium Control (1 mM)): 90 Percent Control
- Platelets (Normal Mice; week 8, Lithium Control (1 mM)): 79 Percent Control
- DNA polymerase activity (herpes simplex virus; HSV): inhibition of DNA polymerase activity
- Absolute neutrophil and platelet counts ([6]; within 3 days, 300 mg t.i.d. with methylprednisolone): a remarkable rise
- Splenomegaly and hypergammaglobulinemia (IgM) (LP-BM5 MuLV [7]; LP-BM5 MuLV animals (Gallicchio et al., 1994)): reduction in the splenomegaly and hypergammaglobulinemia
- Toxicity following dose-escalation of AZT (LP-BM5 MuLV [7]; MAIDS model in vivo (Gallicchio et al., 1995)): reduced the immunochematopoietic toxicity
- Hematopoietic progenitor cells from bone marrow or spleen (LP-BM5 MuLV [7]; in vivo, with zidovudine (literature)): effectively increased the number of hematopoietic progenitor cells
- Patients responding with neutrophilia (HIV-infected patients; 5 AIDS patients (report)): 3 of 5 patients
- Patients responding with neutrophilia (HIV-infected patients; AIDS patients (Worthington 1990)): one of three
- Patients tolerating higher doses of AZT (up to 1,000 mg) (HIV-infected patients): 3 of the 5 patients
- Patients with significant hematopoiesis (HIV-infected patients): Three of the five patients
- Patients responding with neutrophilia (HIV-infected patients; lithium at least 4 weeks, no AZT (Parenti et al., 1988)): 6 of 7
- Lithium toxicity (HIV-infected patients; no AZT (Parenti et al., 1988)): further lithium usage was limited due to the presence of lithium toxicity
- Patients demonstrating significant hematopoiesis (HIV-infected patients; with zidovudine (Herbert et al., 1988)): Three of the 5
- Myelosuppression and marrow toxicity of AZT (normal bone marrow cells [8]): reduced the myelosuppression and marrow toxicity of AZT significantly

Compound: [Cl-].[Li+] [lithium chloride]
- Concentration inhibiting herpes simplex virus replication (herpes simplex virus): 5 to 30 mM
- Myelosuppression and marrow toxicity of AZT (normal bone marrow cells [8]): reduced the myelosuppression and marrow toxicity of AZT significantly
- Effect on AZT toxicity / colony formation (normal bone marrow cells [9]): there is a reduction in AZT toxicity; however, the values never reach the level of the normal control; also recorded: reduced AZT toxicity but was not effective in increasing cell growth and colony formation

Compound: Cc1cn([C@H]2C[C@H](N=[N+]=[N-])[C@@H](CO)O2)c(=O)[nH]c1=O [AZT, 3'-azido-3'-deoxythymidine]
- CFU-GM (Myeloid) colonies ([2]; AZT 0.01 μM): 53.5 ± 3
- CFU-GM (Myeloid) colonies ([2]; AZT 0.1 μM): 39.5 ± 3
- CFU-GM (Myeloid) colonies ([2]; AZT 1.0 μM): 28.5 ± 4
- CFU-GM (Myeloid) colonies ([2]; AZT 10.0 μM): 14.5 ± 3
- CFU-Meg (Megakaryocyte) colonies ([3]; AZT 0.01 μM): 16.0 ± 3
- CFU-Meg (Megakaryocyte) colonies ([3]; AZT 0.1 μM): 10.5 ± 3
- CFU-Meg (Megakaryocyte) colonies ([3]; AZT 1.0 μM): 6.5 ± 3
- CFU-Meg (Megakaryocyte) colonies ([3]; AZT 10.0 μM): 2.5 ± 2
- BFU-E (Erythroid) colonies ([4]; AZT 0.01 μM): 43.5 ± 5
- BFU-E (Erythroid) colonies ([4]; AZT 0.1 μM): 37.5 ± 3
- BFU-E (Erythroid) colonies ([4]; AZT 1.0 μM): 21.5 ± 5
- BFU-E (Erythroid) colonies ([4]; AZT 10.0 μM): 14.5 ± 2
- Lymphocytes and monocytes (Normal Mice; mouse, in vivo): Lower, but less significant, levels
- Toxicity leading to discontinuation ([6]; after 6 months): thrombocytopenia, neutropenia, and anemia
- Toxicity of AZT (AIDS patients): myelosuppression and bone marrow toxicity; also recorded: the development of virus resistance and bone marrow suppression
- Tolerated AZT dose with lithium (HIV-infected patients): up to 1,000 mg
- Tolerated zidovudine dose with lithium (HIV-infected patients; without observable signs of toxicity (Herbert et al., 1988)): up to 1000 mg/day
